Measured values published in patent publication US9012655B2, “Antimicrobial/adjuvant compounds and methods” (Denouamed, Inc., priority 2011, dated 2015).
Values after ≈ are worked out from the molar mass of the structure shown.

Legend:
AcpS enzyme = AcpS enzyme (Escherichia coli, UniProt P24224); assay: Measurement of AcpS inhibition ([3H]acetyl-CoA incorporation into apo-ACP); format: biochemical; details: % activity vs blank-subtracted counts; for activity at 50 µM: test compound 50 uM; for remaining activity at 500 µM: test compound 500 uM
Chain of AcpS enzyme (P24224 whole entry): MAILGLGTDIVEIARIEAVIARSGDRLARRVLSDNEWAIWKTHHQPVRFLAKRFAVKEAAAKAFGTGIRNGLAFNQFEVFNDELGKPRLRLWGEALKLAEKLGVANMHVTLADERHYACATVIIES
Procedure, shortened: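 Acetyl transfer from [3H]acetyl-CoA (labelled stock mixed with unlabelled acetyl-CoA) onto apo-ACP by E. coli AcpS at RT, started with substrate; aliquots TCA-precipitated at time points up to 60 min. Pellet radioactivity by scintillation; results as % activity of blank-subtracted substrate counts.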

[1] = test system: Methicillin-Resistant Staph. aureus (MRSA); assay: MIC, NCCLS M7-A6 broth microdilution, MRSA; format: cell-based; details: Staphylococcus aureus, MRSA, 16 to 20 h, 35 degrees Celsius
Procedure, shortened: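 Broth microdilution per NCCLS M7-A6 in cation-adjusted Mueller-Hinton broth, doubling dilutions, inoculum 5×10^5 CFU/mL, DMSO controls included. Read after 16–20 h at 35 °C in ambient air; MIC is lowest concentration preventing visible growth.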

Bacillus cereus NCTC6349 = assay: MIC panel of challenge pathogens (CLSI); format: cell-based; details: Bacillus cereus NCTC6349; for MIC: read-out: 100% inhibition; for MIC50: read-out: MIC50 (50%); for MIC80: read-out: MIC80 (80%)
Procedure: (§1) The inocula for each bacterial strain were prepared by picking 5-10 distinct colonies from the culture plates and suspending them in the appropriate broth as per Clinical and Laboratory Standards Institute (CLSI) guidelines M07-A8, M24-A or M11-A7 as appropriate. The inoculum was resuspended by vigorous shaking on a vortex mixer for 15 s. The turbidity was then adjusted to McFarland standard 0.5 ([…]). The inoculum was further diluted in the appropriate media for MIC tests to give a final inoculum in each well of 2-8×10^5 CFU/ml. MICs were tested in the appropriate broth in accordance with the appropriate CLSI guidelines.
(§2) A stock solution of each compound was prepared at a concentration of 1.28 g/L in DMSO. The stock was further diluted in the appropriate media to give a top starting concentration of 128 mg/L in the assay. 100 μL of the appropriate media, as per CLSI guidelines, was dispensed into each well in columns 2-12. 200 μL of the each compound solution (at 256 mg/L) was dispensed into each well in column 1. 100 μL aliquots were pipetted from column 1 wells and dispensed into column 2 with a multichannel pipette (±2% coefficient of variation) thus diluting two-fold. 100 μL samples were then pipetted from column 2 wells and dispensed into column 3. The process was repeated through to column 10. The final 100 μL of diluted drug from column 10 was then discarded. Row 11 acted as a positive control (no compound, but organisms added), Row 12 acted as a negative control (no compound, and no organisms added).
(§3) 100 μL of the appropriate inoculum suspension in the appropriate media, as per CLSI guidelines, was added to the appropriate wells. […] All plates were incubated in the dark under aerobic or anaerobic conditions at 30-37° C. for 24-48 hours, according to the appropriate CLSI guideline. Plates were read visually 24-48 hours post inoculation. Endpoints of 100% inhibition were determined (CLSI interpretation endpoints following visual examination).
(§4) MIC50, MIC80, and 100% inhibition results are reported below in μg/mL in the following Tables, indicating each compound tested against a given species and strain: […]

[2] = test system: Enterococcus faecalis ATCC51299; assay: MIC panel of challenge pathogens (CLSI); format: cell-based; details: Enterococcus faecalis ATCC51299; for MIC: read-out: 100% inhibition; for MIC50: read-out: MIC50 (50%); for MIC80: read-out: MIC80 (80%)
Procedure: as §1, §2, §3, §4

[3] = test system: Staphylococcus aureus ATCC43300; assay: MIC panel of challenge pathogens (CLSI); format: cell-based; details: Staphylococcus aureus ATCC43300; for MIC: read-out: 100% inhibition; for MIC50: read-out: MIC50 (50%); for MIC80: read-out: MIC80 (80%)
Procedure: as §1, §2, §3, §4

[4] = test system: Staphylococcus aureus AUR58 7005; assay: MIC panel of challenge pathogens (CLSI); format: cell-based; details: AUR587005, Staphylococcus aureus AUR58 7005; for MIC: read-out: 100% inhibition; for MIC50: read-out: MIC50 (50%); for MIC80: read-out: MIC80 (80%)
Procedure: as §1, §2, §3, §4

[5] = test system: Staphylococcus aureus EUP MRSA002; assay: MIC panel of challenge pathogens (CLSI); format: cell-based; details: EUPMRSA002, Staphylococcus aureus EUP MRSA002; for MIC: read-out: 100% inhibition; for MIC50: read-out: MIC50 (50%); for MIC80: read-out: MIC80 (80%)
Procedure: as §1, §2, §3, §4

[6] = test system: Staphylococcus aureus EUP MRSA004; assay: MIC panel of challenge pathogens (CLSI); format: cell-based; details: EUPMRSA004, Staphylococcus aureus EUP MRSA004; for MIC: read-out: 100% inhibition; for MIC50: read-out: MIC50 (50%); for MIC80: read-out: MIC80 (80%)
Procedure: as §1, §2, §3, §4

[7] = test system: Staphylococcus aureus EUP SAU040; assay: MIC panel of challenge pathogens (CLSI); format: cell-based; details: EUPSAU040, Staphylococcus aureus EUP SAU040; for MIC: read-out: 100% inhibition; for MIC50: read-out: MIC50 (50%); for MIC80: read-out: MIC80 (80%)
Procedure: as §1, §2, §3, §4

[8] = test system: Staphylococcus aureus NRS382; assay: MIC panel of challenge pathogens (CLSI); format: cell-based; details: Staphylococcus aureus NRS382; for MIC: read-out: 100% inhibition; for MIC50: read-out: MIC50 (50%); for MIC80: read-out: MIC80 (80%)
Procedure: as §1, §2, §3, §4

[9] = test system: Staphylococcus aureus EUP MRSA002; assay: MIC panel of challenge pathogens (CLSI), EUP MRSA002; format: cell-based; details: EUPMRSA002, Staphylococcus aureus EUP MRSA002; for MIC: read-out: 100% inhibition; for MIC50: read-out: MIC50 (50%); for MIC80: read-out: MIC80 (80%)
Procedure: as §1, §2, §3, §4

Fc1ccc(-c2cc(-c3nnn[nH]3)sc2-c2ccc(F)c3ccccc23)c2ccccc12 [DNM0537, 5-(4,5-Bis(4-fluoronaphthalen-1-yl)thiophen-2-yl)-1H-tetrazole]
activity at 50 µM (AcpS enzyme): 1.28%
remaining activity at 500 µM (AcpS enzyme): 0.14%
MIC [1]: 2 µM (≈ 0.881 µg/mL)
MIC (Bacillus cereus NCTC6349): ≤ 0.25 µg/mL
MIC50 (Bacillus cereus NCTC6349): ≤ 0.25 µg/mL
MIC80 (Bacillus cereus NCTC6349): ≤ 0.25 µg/mL
MIC [2]: 0.5 µg/mL (≈ 1.14 µM)
MIC50 [2]: 0.5 µg/mL (≈ 1.14 µM)
MIC80 [2]: 0.5 µg/mL (≈ 1.14 µM)
MIC [3]: 1 µg/mL (≈ 2.27 µM)
MIC50 [3]: 0.5 µg/mL (≈ 1.14 µM)
MIC80 [3]: 1 µg/mL (≈ 2.27 µM)
MIC [4]: ≤ 0.25 µg/mL
MIC50 [4]: ≤ 0.25 µg/mL
MIC80 [4]: ≤ 0.25 µg/mL
MIC [5]: 1 µg/mL (≈ 2.27 µM)
MIC50 [5]: 1 µg/mL (≈ 2.27 µM)
MIC80 [5]: 1 µg/mL (≈ 2.27 µM)
MIC [6]: 1 µg/mL (≈ 2.27 µM)
MIC50 [6]: 0.5 µg/mL (≈ 1.14 µM)
MIC80 [6]: 1 µg/mL (≈ 2.27 µM)
MIC [7]: 1 µg/mL (≈ 2.27 µM)
MIC50 [7]: 1 µg/mL (≈ 2.27 µM)
MIC80 [7]: 1 µg/mL (≈ 2.27 µM)
MIC [8]: ≤ 0.25 µg/mL
MIC50 [8]: ≤ 0.25 µg/mL
MIC80 [8]: ≤ 0.25 µg/mL
MIC [9]: 1 µg/mL (≈ 2.27 µM)
MIC50 [9]: 0.5 µg/mL (≈ 1.14 µM)
MIC80 [9]: 1 µg/mL (≈ 2.27 µM)

CC(C)c1cc(Cl)ccc1-c1cc(-c2nnn[nH]2)sc1-c1ccc(Cl)cc1C(C)C [DNM0548, 5-(4,5-Bis(4-chloro-2-iso-propylphenyl)thiophen-2-yl)-1H-tetrazole]
activity at 50 µM (AcpS enzyme): 3.1%
remaining activity at 500 µM (AcpS enzyme): 0.1%
MIC [1]: 4 µM (≈ 1.83 µg/mL)
MIC (Bacillus cereus NCTC6349): ≤ 0.25 µg/mL
MIC50 (Bacillus cereus NCTC6349): ≤ 0.25 µg/mL
MIC80 (Bacillus cereus NCTC6349): ≤ 0.25 µg/mL
MIC [2]: ≤ 0.25 µg/mL
MIC50 [2]: ≤ 0.25 µg/mL
MIC80 [2]: ≤ 0.25 µg/mL
MIC [3]: ≤ 0.25 µg/mL
MIC50 [3]: ≤ 0.25 µg/mL
MIC80 [3]: ≤ 0.25 µg/mL
MIC [4]: 1 µg/mL (≈ 2.19 µM)
MIC50 [4]: 1 µg/mL (≈ 2.19 µM)
MIC80 [4]: 1 µg/mL (≈ 2.19 µM)
MIC [5]: 0.5 µg/mL (≈ 1.09 µM)
MIC50 [5]: 0.5 µg/mL (≈ 1.09 µM)
MIC80 [5]: 0.5 µg/mL (≈ 1.09 µM)
MIC [6]: 0.5 µg/mL (≈ 1.09 µM)
MIC50 [6]: 0.5 µg/mL (≈ 1.09 µM)
MIC80 [6]: 0.5 µg/mL (≈ 1.09 µM)
MIC [7]: 0.5 µg/mL (≈ 1.09 µM)
MIC50 [7]: 0.5 µg/mL (≈ 1.09 µM)
MIC80 [7]: 0.5 µg/mL (≈ 1.09 µM)
MIC [8]: 0.5 µg/mL (≈ 1.09 µM)
MIC50 [8]: 0.5 µg/mL (≈ 1.09 µM)
MIC80 [8]: 0.5 µg/mL (≈ 1.09 µM)
MIC [9]: ≤ 0.25 µg/mL
MIC50 [9]: ≤ 0.25 µg/mL
MIC80 [9]: ≤ 0.25 µg/mL

Cc1cc(Cl)ccc1-c1cc(-c2nnn[nH]2)sc1-c1ccc(C)c2ccccc12 [DNM0576, 5-(4-(4-Chloro-2-methylphenyl)-5-(4-methylnaphthalen-1-yl)thiophen-2-yl)-1H-tetrazole]
activity at 50 µM (AcpS enzyme): 5.88%
remaining activity at 500 µM (AcpS enzyme): 0.15%
MIC [1]: 4 µM (≈ 1.67 µg/mL)
MIC (Bacillus cereus NCTC6349): 0.5 µg/mL (≈ 1.2 µM)
MIC50 (Bacillus cereus NCTC6349): ≤ 0.25 µg/mL
MIC80 (Bacillus cereus NCTC6349): ≤ 0.25 µg/mL
MIC [2]: 1 µg/mL (≈ 2.4 µM)
MIC50 [2]: 1 µg/mL (≈ 2.4 µM)
MIC80 [2]: 1 µg/mL (≈ 2.4 µM)
MIC [3]: 0.5 µg/mL (≈ 1.2 µM)
MIC50 [3]: 0.5 µg/mL (≈ 1.2 µM)
MIC80 [3]: 0.5 µg/mL (≈ 1.2 µM)
MIC [4]: 0.5 µg/mL (≈ 1.2 µM)
MIC50 [4]: 0.5 µg/mL (≈ 1.2 µM)
MIC80 [4]: 0.5 µg/mL (≈ 1.2 µM)
MIC [5]: ≤ 0.25 µg/mL
MIC50 [5]: ≤ 0.25 µg/mL
MIC80 [5]: ≤ 0.25 µg/mL
MIC [6]: ≤ 0.25 µg/mL
MIC50 [6]: ≤ 0.25 µg/mL
MIC80 [6]: ≤ 0.25 µg/mL
MIC [7]: ≤ 0.25 µg/mL
MIC50 [7]: ≤ 0.25 µg/mL
MIC80 [7]: ≤ 0.25 µg/mL
MIC [8]: 0.5 µg/mL (≈ 1.2 µM)
MIC50 [8]: 0.5 µg/mL (≈ 1.2 µM)
MIC80 [8]: 0.5 µg/mL (≈ 1.2 µM)
MIC [9]: 0.5 µg/mL (≈ 1.2 µM)
MIC50 [9]: 0.5 µg/mL (≈ 1.2 µM)
MIC80 [9]: 0.5 µg/mL (≈ 1.2 µM)
